# Measured values published in patent US20110046070A1, “GENE EXPRESSION INHIBITOR SELECTIVE FOR MATRIX METALLOPROTEINASE-9 GENE” (priority 2008, published 2011).
# Tests used:
# [1] = test system: HeLa cells; assay: Growth inhibition assay, HeLa; type: cell-based, human; conditions: 0 μM to 30 μM, 72 hours, WST-8
# Description: (§1) Cell growth inhibition test was conducted using MDA-MB-231 and HeLa cells. The HeLa cells were inoculated at a concentration of 2500 cells/well to a 96-well microtiter plate and incubated for 24 hours in 100 μl of Dulbecco's modified Eagle medium (DMEM) containing 10% fetal bovine serum (Invitrogen). Then, after medium replacement, the cells were cultured for 72 hours in a medium supplemented with 10% fetal bovine serum containing 0 μM to 30 μM (0 μM, 0.3 μM, 1 μM, 3 μM, 10 μM and 30 μM) polyamide HMMP9NFκβ, and 10 μl of live cell counting reagent SF (Nacalai Tesque, Inc.) was added thereto, followed by 2-hour color reaction. Absorbance was measured at 450 nm using an ARVO microtiter plate reader. This experiment was conducted by modified MTT assay (WST-8 ™: Nacalai Tesque, Inc.) using water-soluble formazan.
# [2] = test system: MMP-9 protein in MDA-MB-231 cells; assay: Western blotting analysis (protein assay); type: cell-based, human; conditions: MDA-MB-231, 48 hours, various concentrations, vs DMSO control
# Description: MDA-MB-231 cells were treated with the polyamide of the present invention at various concentrations. 48 hours after the treatment, the cells were collected, and the total cell lysate was prepared into an extraction buffer containing a protease inhibition cocktail (Boehringer Ingelheim GmbH, Germany) containing 50 mM Tris-HCl, 150 mM NaCl, 10 mM EDTA and 1% Triton-X. Homogenates were centrifuged at 15,000×g at 4° C. for 10 minutes. The supernatants were collected, and protein concentrations were measured. The protein sample (10 μg) was electrophoresed on NuPAGE+™ 10% Bis-Tris gel (Invitrogen Life Technologies, Corp.) and transferred to a PVDF (polyvinylidene difluoride) membrane (Millipore, Bedford, Mass.). The PVDF membrane was incubated overnight with rabbit anti-MMP-9 polyclonal antibodies (Calbiochem (registered trademark) Biosciences, Inc. La Jolla, Calif.) (1:500) obtained from Calbiochem (registered trademark). The PVDF membrane was washed three times with a Tris buffer containing 0.2% Tween 20. The immunoconjugated proteins were identified through reaction with peroxidase-conjugated goat antibodies against rabbit IgG (MP Biomedicals, Inc.) and subsequently amplified by chemiluminescence detection (Amersham, Piscataway, N.J.).
# [3] = test system: human uterine cervix cancer HeLa cells; assay: Wound-healing migration assay, HeLa; type: cell-based; conditions: 48 hours after the damage, various concentrations
# Description: (§2) A human breast cancer MDA-MB-231 cell strain was used. The cells were cultured at 37° C. in a humid environment containing 5% CO^2 in an RPMI1640 medium (Sigma-Aldrich Corp., St. Louis, Mo., USA) supplemented with 100 μg/ml streptomycin, 100 units/ml penicillin and 10% fetal bovine serum (FBS) (Sigma-Aldrich Corp.). Human uterine cervix cancer HeLa cells were cultured in a Dulbecco's modified Eagle medium (DMEM, Invitrogen Life Technologies, Corp., Carlsbad, Calif.) containing 10% FBS and 2 mM L-glutamine.
# (§3) To assay cellular migration in the process of wound healing, 3×10^5 cells were inoculated to each well of an 8-well chamber slide, and the cell layer was damaged using a plastic micropipette when the cells reached confluence. The medium and debris were removed by suction, and 100 μl of a fresh medium containing various polyamides was replaced therefor. 48 hours after the damage, the cells were fixed with Diff-Quik solution (SYSMEX INTERNATIONAL REAGENTS CO., LTD., Kobe, Japan), then stained, and photographed using a phase-contrast microscope.
# [4] = test system: MDA-MB-231 cells; assay: Growth inhibition assay, MDA-MB-231; type: cell-based, human; conditions: MDA-MB-231, 0 μM to 30 μM, 72 hours, WST-8
# Description: as §1
# [5] = test system: human breast cancer MDA-MB-231 cells; assay: Wound-healing migration assay, MDA-MB-231; type: cell-based; conditions: 48 hours after the damage, various concentrations, vs DMSO
# Description: as §2, §3
# [6] = test system: MDA-MB-231 cells; assay: Invasion assay into matrigel, MDA-MB-231; type: cell-based, human; conditions: 22 hours
# Description: Cell invasion assay was conducted using a 24-well cell culture BioCoat matrigel invasion chamber (BD Biosciences, Discovery Labware, Bedford, Mass., USA). MDA-MB-231 cells (1×10^3 cells/well) or HeLa cells (1×10^3 cells/well) were suspended in an RPMI1640 or DMEM medium containing 0.1% FBS and added to the upper chamber. An RPMI1640 or DMEM medium containing 5% FBS was added to the lower chamber. Then, the cells were cultured at 37° C. for 22 hours in a 5% CO2 environment. Noninvasive cells remaining on the membrane were wiped off using a cotton swab. Invasion cells were fixed and stained with a Diff-Quik kit. The number of cells invading the membrane was determined in mean±standard deviation from a total of 3 membranes by counting in 10 fields of view per membrane using an optical microscope (200× magnification).
# The degradation of constitutive proteins of extracellular matrix is important for the invasion of tumor cells. To evaluate the influence of HMMP9AP1 and HMMP9NFκβ, the MMP9 Py-Im polyamides of the present invention, on the invasion of tumor cells, 5×10^3 MDA-MB-231 cells were incubated with each polyamide at various concentrations for 22 hours. The invasiveness of cells treated with DMSO or each polyamide of the present invention was compared in MDA-MB-231 cells. The DMSO-treated MDA-MB-231 cells remarkably invaded the transparent membrane coated with matrigel. […] In contrast, the cells treated with the HMMP9AP1 or HMMP9NFκβ of the present invention had much lower invasion into the membrane.
Structure (SMILES),number of live cells (growth inhibition) [1],expression of MMP-9 protein [2],migration of HeLa cells [3],number of live cells (growth inhibition) [4],migration of MDA-MB-231 cells [5],decrease in invasion compared to the DMSO-treated control ([6]; 0.3 μM) [%],decrease in invasion compared to the DMSO-treated control ([6]; 1 μM) [%],decrease in invasion compared to the DMSO-treated control ([6]; 3 μM) [%],decrease in invasion compared to the DMSO-treated control ([6]; 10 μM) [%]
CC(=O)Nc1cn(C)c(C(=O)Nc2cc(C(=O)NCCC(=O)Nc3cn(C)c(C(=O)Nc4cc(C(=O)Nc5cc(C(=O)NCCCC(=O)Nc6cn(C)c(C(=O)Nc7cn(C)c(C(=O)Nc8cc(C(=O)NCCC(=O)Nc9cn(C)c(C(=O)Nc%10cc(C(=O)NCCC(=O)NCCCN(C)C)n(C)c%10)n9)n(C)c8)n7)n6)n(C)c5)n(C)c4)n3)n(C)c2)n1 [HMMP9AP1],decreased the number of live cells,remarkably inhibited,inhibited the migrations,decreased the number of live cells,inhibit the migration of MDA-MB-231 cells in a concentration-dependent manner,90,52,44,25.4
CC(=O)Nc1cc(C(=O)Nc2cc(C(=O)NCCC(=O)Nc3cc(C(=O)Nc4cc(C(=O)NCCCC(=O)Nc5cn(C)c(C(=O)Nc6cn(C)c(C(=O)NCCC(=O)Nc7cc(C(=O)Nc8cc(C(=O)NCCC(=O)NCCCN(C)C)n(C)c8)n(C)c7)n6)n5)n(C)c4)n(C)c3)n(C)c2)n(C)c1 [HMMP9NFκβ],decreased the number of live cells in a concentration-dependent manner,decreased in an HMMP9NFκβ concentration-dependent manner,inhibit the migration of HeLa cells in a concentration-dependent manner,decreased the number of live cells in a concentration-dependent manner,inhibit the migration of MDA-MB-231 cells in a concentration-dependent manner,88,61,30,22
